# Legend:
# globin = settings: rats and mice exposed to 1,3-[2,3-14C]-butadiene; cited from earlier work
# [1] = cited from earlier work
# [2] = 6.25 to 1000 ppm, mice and rats; cited from earlier work
# [3] = rodents given BDD or BMO; cited from earlier work
# [4] = cited from earlier work; remark: listed apart in the source
# [5] = buffer, pH 7.4
# [6] = buffer, pH 9
# [7] = buffer, pH 9; remark: listed apart in the source
smiles,measurement,setting,value
"C=[14CH][14CH]=C [1,3-[2,3-^14C]-butadiene]",Total globin radioactivity characterized as trihydroxybutyl adducts,globin,1−2%
"C=CC=C [BD, 1,3-Butadiene]",International Agency for Research on Cancer classification,[1],are carcinogenic to humans
same,National Toxicology Program classification,[1],known to be a human carcinogen
same,Tumor formation after long-term inhalation exposure,[2],tumor formation at multiple organ sites
"C=CC(O)CO (centres unmarked) [BDD, 3-butene-1,2-diol]",Amount of BDD detected in the urine,[3],< 5%
same,HMVK-derived mercapturates as share of the administered BDD dose,[4],4−8%
"C=CC(=O)CO [HMVK, hydroxymethylvinyl ketone]",Half-life of HMVK in the absence of nucleophilic amino acids,[5],"a Half-life of HMVK when incubated at a concentration of 3 mM at pH 7.4, 37 °C in the absence of nucleophilic amino acids was determined to be 710 min. ND, not determined. Half-lives were estimated assuming pseudo-first order kinetics. Data is representative of typical experimental values."
same,"Estimated half-life of HMVK, HMVK + NAL",[6],45 min
same,Time at which all of HMVK was consumed,"HMVK 3 mM, NAC 6 mM, pH 7.4, 37 °C",0.5 h
same,"Estimated half-life of HMVK, HMVK + NAC","buffer, pH 7.4",instantaneous
same,"Estimated half-life of HMVK, HMVK + L-valinamide",[7],13.5 min

# Source: article PMC2683906 (Chemical research in toxicology, 2009)
